Values of other authors as cited in US20250228877A1, “MANAGEMENT OF SKIN AILMENTS” (priority 2021, published 2025).

Assays:
[1] = system: human umbilical vein endothelial cell (HUVEC) tube formation; conditions: after 24 hours; reconstituted extracellular matrix
[2] = 1-4% IP-6 in drinking water; measured by gadolinium uptake
[3] = 7 days following treatment

O=P(O)(O)O[C@H]1[C@H](OP(=O)(O)O)[C@@H](OP(=O)(O)O)[C@H](OP(=O)(O)O)[C@@H](OP(=O)(O)O)[C@H]1OP(=O)(O)O [IP-6, myo-inositol hexakisphosphate]
number of capillaries [1]: reduction | angiogenesis evaluated by micro-vessel density (MVD) [2]: inhibited angiogenesis | vascularity (number of blood vessel formation) [3]: inhibited vascularity
